According to PubChem BioAssay (NCI):
Several values for one entry are separate records, joined by “and”; a condition that tells them apart may be missing. Equal entries are not always repeated.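 Dose response: 5 concentrations. Exposure: 48 h. Format: 96-well plates. Endpoint: linear interpolation; highest concentration if not reached. Here, GI50 denotes the concentration required for 50% inhibition of growth. The concentration for full growth arrest is given as TGI.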

Columns and labels:
Assay in all cases: inhibition of tumour cell growth, NCI panel, 48 h
HT29 colon = tested on: HT29 colon
MDA-MB-435 = tested on: MDA-MB-435
UACC-257 melanoma = tested on: UACC-257 melanoma
SF-268 CNS = tested on: SF-268 CNS
PC-3 prostate = tested on: PC-3 prostate
HOP-62 NSCLC = tested on: HOP-62 NSCLC
A498 renal = tested on: A498 renal
UACC-62 melanoma = tested on: UACC-62 melanoma
BT-549 breast = tested on: BT-549 breast

Structure (SMILES)	TGI (HT29 colon)	TGI (MDA-MB-435)	TGI (UACC-257 melanoma)	TGI (SF-268 CNS)	TGI (PC-3 prostate)	TGI (HOP-62 NSCLC)	TGI (A498 renal)	TGI (UACC-62 melanoma)	TGI (BT-549 breast)	GI50 (HT29 colon)	GI50 (SF-268 CNS)	GI50 (PC-3 prostate)	GI50 (HOP-62 NSCLC)	GI50 (A498 renal)	GI50 (UACC-62 melanoma)	GI50 (BT-549 breast)	GI50 (MDA-MB-435)	GI50 (UACC-257 melanoma)
COc1cc(CS(=O)c2ccc(O)cc2)cc(OC)c1OC (stereo unspecified)	> 100 µM	> 100 µM	> 100 µM	> 100 µM	> 100 µM	> 100 µM	> 100 µM	> 100 µM	> 100 µM									
COC(=O)C1=C(C(=O)OC)SC2(S1)C(C(=O)OC)=C(C(=O)OC)Sc1c2ssc1=NC(C)(C)C	2.57 µM	3.08 µM	3.05 µM	4.72 µM	2.75 µM	15.5 µM	3.48 µM	2.97 µM	7.47 µM									
C=C(C(=O)O[C@H]1C(=O)C2=C(C)CCC3C(=C)C(=O)O[C@@H]3C2[C@]1(C)O)C1CC[C@]2(C)CCCC(=C)[C@H]2C1 (stereo partly specified)	13.5 µM and 10.8 µM	10.1 µM and 8.5 µM	14 µM and 12 µM	14.8 µM and 11 µM	10.4 µM and 16.8 µM	10.2 µM and 20.5 µM	6.88 µM and 26.1 µM	9.79 µM and 31.6 µM	14 µM and 11.1 µM	1.59 µM	7.47 µM	4.08 µM	3.09 µM	0.0282 µM	16.9 µM	6.99 µM		
CC1(C)CCc2c(c(N=Nc3ccc(F)cc3)c3ccccc3c2O)O1	44.1 µM	32 µM	41.1 µM	> 100 µM	> 100 µM	57.3 µM	88.8 µM	31.3 µM	> 100 µM									
CN1CCN(C2=CC(=O)c3c(O)ccc(O)c3C2=O)CC1	0.946 µM	0.332 µM	0.467 µM	2.93 µM	> 10 µM	2.16 µM	2.87 µM	3.13 µM	3.14 µM									
COc1ccc(N2NC(c3ccccc3)(c3ccccc3)C(C)C2=O)cc1 (stereo unspecified)	> 100 µM	> 100 µM	> 100 µM	> 100 µM	> 100 µM	> 100 µM	> 100 µM	> 100 µM	> 100 µM									
Brc1ccc2c(-c3csc(-c4c[nH]c5ccccc45)n3)c[nH]c2c1	29 µM	32.9 µM	50.7 µM	34.5 µM	28.9 µM	30.8 µM	32.2 µM	35.9 µM	37.4 µM									
Cc1sc2nc3n(c(=O)c2c1C)N=CN(c1ccc(F)cc1)C3	> 100 µM	> 100 µM	> 100 µM	> 100 µM	> 100 µM	> 100 µM	> 100 µM	> 100 µM	> 100 µM									
c1ccc(CN2CCN3CCN(CC2)CCN(Cc2ccccc2)CC3)cc1	17.2 µM	12.6 µM	8.8 µM	24.7 µM	18.5 µM	32.5 µM	27.5 µM	14.9 µM	17.6 µM									
CC1=C(C)C(=O)C(C2=CC(=O)C=CC2=O)=C(C2=CC(=O)C=CC2=O)C1=O	> 100 µM	> 83.7 µM	> 100 µM	> 100 µM	> 100 µM	> 100 µM	> 100 µM	> 100 µM	> 100 µM									
O=c1ccc2nc(-c3ccccn3)nn(-c3ccccc3)c-2c1	8.85 µM	5.75 µM	3.93 µM	25.3 µM	4.18 µM	44.3 µM	27.2 µM	4.3 µM	10.1 µM	2.85 µM	11.8 µM	1.93 µM	3.76 µM	14.1 µM	1.95 µM	2.86 µM	2.29 µM	1.92 µM
O=C(O)Cn1cc([N+](=O)[O-])c(=O)c2ccccc21	> 100 µM	> 100 µM	> 100 µM	> 100 µM	> 100 µM	> 100 µM	> 100 µM	> 100 µM	> 100 µM									
O=[N+]([O-])C(Cl)=C/C(=C(\Cl)SCc1ccccc1)[N+](=O)[O-]	68.6 µM	36.3 µM	79.7 µM	> 100 µM	48.1 µM	36.2 µM	81.4 µM	> 100 µM	50.2 µM									
O=c1[nH]c(=S)c2cc3c(=S)[nH]c(=O)n(CCO)c3nc2n1CCO		> 100 µM	> 100 µM	> 100 µM	> 100 µM	> 100 µM	> 100 µM		> 100 µM									
COC(=O)c1c(O)ccc2c1c1c(n2Cc2ccccc2)C(=O)c2ccccc2C1	37.4 µM	> 100 µM	> 100 µM	> 100 µM	60.5 µM	> 100 µM	> 100 µM	> 100 µM	> 100 µM									
O=c1c2ccccc2nc(N/N=C/c2ccccc2O)n1-c1ccccc1	> 100 µM	> 100 µM	> 100 µM	> 100 µM	> 100 µM	> 100 µM	> 100 µM	7.1 µM	> 100 µM									
N#CC(C#N)=C1C(=O)NC(N)=C1C#N	> 100 µM	> 100 µM	> 100 µM	> 100 µM	> 100 µM	> 100 µM	> 100 µM	> 100 µM	> 100 µM									
CCN1CCC(O)(/C=C/c2ccc(OC)cc2)C(C(=O)/C=C/c2ccc(OC)cc2)C1 (stereo unspecified)	25.4 µM	19 µM	30.9 µM	28.8 µM	23.5 µM	33.4 µM	27.2 µM	26.1 µM	28.9 µM									
O=c1ccc2ccc(O)cc2o1	> 100 µM	> 100 µM	> 100 µM	> 100 µM	> 100 µM	> 100 µM	> 100 µM	> 100 µM	> 100 µM									
CCCCCCCCCCCCCC(=O)N(CCCCCCCCC)CC(O)C(O)C(OC1OC(CO)C(O)C(O)C1O)C(O)CO (stereo unspecified)	33.3 µM	34.6 µM	32.1 µM	39.4 µM	54.6 µM	47.4 µM	35.9 µM	38.2 µM	43.7 µM									
Cc1c(C(=O)O)n2cnnc2c2ccccc12	> 100 µM	> 100 µM	> 100 µM	> 100 µM	> 100 µM	> 100 µM	> 100 µM	> 100 µM	> 100 µM									
CC(=O)c1c2n(n(-c3ccccc3)c1=O)C(=O)c1nccnc1-2	> 100 µM	> 100 µM	> 100 µM	> 100 µM	> 100 µM		> 100 µM	> 100 µM	> 100 µM									
